Assay results taken from patent publication US20060269529A1, “Modified t lymphocytes and uses therefor” (priority 2002, published 2006).

Key:
[1] = tested on: CT26 murine colon adenocarcinomas; experiment: Adoptive transfer, subcutaneous CT26 tumors in BALB/c mice; assay type: in vivo; settings: combination study, TNP-470 30 mg/kg s.c. every other day, daily IL-2, FIG. 5A
Method: (§1) On day 0, tumor cells were implanted into the subcutaneous space on the right flank of recipient mice. On the days of treatment, CTLs (4 to 7 post-transduction) were harvested, washed, resuspended in cold PBS, and injected in a volume of 300 μl into the retro-orbital venous plexus. […] TNP-470 (TAP Holdings Inc., Deerfield, Ill.) (30 mg/kg) was injected subcutaneously (into a site remote from the tumor) every other day in 0.3 ml PBS starting with the first day of CTL therapy. Starting volumes of tumors ranged from 40 to 80 mm^3.

[2] = tested on: B16.F10 murine melanomas; experiment: Adoptive transfer, subcutaneous B16.F10 tumors in C57BL/6 mice; assay type: in vivo; settings: combination study, TNP-470 30 mg/kg s.c. every other day, daily IL-2, FIG. 5B
Method: as §1

[3] = tested on: T241 fibrosarcomas; experiment: Adoptive transfer, T241 tumors in C57BL/6 mice; assay type: in vivo; settings: combination study, TNP-470 30 mg/kg s.c. every other day, daily IL-2, FIG. 5C
Method: as §1, with “mm^3. All mice were sacrificed when control mice reached a mean tumor volume of 2,000 mm^3 or had extensive tumor ulceration.” for “mm^3.”

[4] = Toxicity observations in treated tumor-bearing mice; assay type: in vivo; settings: TNP-470 alone
Method: as §1, with “mm^3. All mice were sacrificed when control mice reached a mean tumor volume of 2,000 mm^3 or had extensive tumor ulceration.” for “mm^3.”

[5] = molecular target: T1, human KDR-Fc (VEGFR2) (Homo sapiens, UniProt P35968); assay type: binding
T1 construct: purchased R & D Systems
Method: High-titer retrovirus encoding the gene for a soluble form of Flk-1, Flk-Fc, were used to infect 293T cells. Conditioned medium from these transduced cells was collected and subjected to Western blot analysis by using either antibody directed against Flk-1 or ^125I-labeled protein A to confirm the presence of both the Flk-1 and Fc portions of the fusion protein. For FACS analysis of HeLa-VEGF-cTcR cells, 2 ml of conditioned medium from these transduced cells or control media from untransduced 293T cells was used as the primary reagent. The cells were then washed and incubated with anti-mouse IgG2a-PE (Chemicon) and analyzed. For the VEGF-cTcR/KDR-Fc binding study, VEGF-cTcR clone 2 cells were incubated with increasing amounts of human KDR-Fc (R & D Systems), washed twice with PBS, and stained with anti-human IgG1-FITC antibody. For analysis of transduced CTLs, cells were incubated successively with anti-human c-Myc antibody, biotinylated anti-mouse IgG, and streptavidin-PE or only with anti-mouse CD8 antibody conjugated to FITC (Pharmingen).

[6] = molecular target: Flk-1 (Mus musculus, UniProt P35918); settings: Millauer 1993; Quinn 1993; cited from earlier work
Chain of Flk-1 (P35918 20-1345): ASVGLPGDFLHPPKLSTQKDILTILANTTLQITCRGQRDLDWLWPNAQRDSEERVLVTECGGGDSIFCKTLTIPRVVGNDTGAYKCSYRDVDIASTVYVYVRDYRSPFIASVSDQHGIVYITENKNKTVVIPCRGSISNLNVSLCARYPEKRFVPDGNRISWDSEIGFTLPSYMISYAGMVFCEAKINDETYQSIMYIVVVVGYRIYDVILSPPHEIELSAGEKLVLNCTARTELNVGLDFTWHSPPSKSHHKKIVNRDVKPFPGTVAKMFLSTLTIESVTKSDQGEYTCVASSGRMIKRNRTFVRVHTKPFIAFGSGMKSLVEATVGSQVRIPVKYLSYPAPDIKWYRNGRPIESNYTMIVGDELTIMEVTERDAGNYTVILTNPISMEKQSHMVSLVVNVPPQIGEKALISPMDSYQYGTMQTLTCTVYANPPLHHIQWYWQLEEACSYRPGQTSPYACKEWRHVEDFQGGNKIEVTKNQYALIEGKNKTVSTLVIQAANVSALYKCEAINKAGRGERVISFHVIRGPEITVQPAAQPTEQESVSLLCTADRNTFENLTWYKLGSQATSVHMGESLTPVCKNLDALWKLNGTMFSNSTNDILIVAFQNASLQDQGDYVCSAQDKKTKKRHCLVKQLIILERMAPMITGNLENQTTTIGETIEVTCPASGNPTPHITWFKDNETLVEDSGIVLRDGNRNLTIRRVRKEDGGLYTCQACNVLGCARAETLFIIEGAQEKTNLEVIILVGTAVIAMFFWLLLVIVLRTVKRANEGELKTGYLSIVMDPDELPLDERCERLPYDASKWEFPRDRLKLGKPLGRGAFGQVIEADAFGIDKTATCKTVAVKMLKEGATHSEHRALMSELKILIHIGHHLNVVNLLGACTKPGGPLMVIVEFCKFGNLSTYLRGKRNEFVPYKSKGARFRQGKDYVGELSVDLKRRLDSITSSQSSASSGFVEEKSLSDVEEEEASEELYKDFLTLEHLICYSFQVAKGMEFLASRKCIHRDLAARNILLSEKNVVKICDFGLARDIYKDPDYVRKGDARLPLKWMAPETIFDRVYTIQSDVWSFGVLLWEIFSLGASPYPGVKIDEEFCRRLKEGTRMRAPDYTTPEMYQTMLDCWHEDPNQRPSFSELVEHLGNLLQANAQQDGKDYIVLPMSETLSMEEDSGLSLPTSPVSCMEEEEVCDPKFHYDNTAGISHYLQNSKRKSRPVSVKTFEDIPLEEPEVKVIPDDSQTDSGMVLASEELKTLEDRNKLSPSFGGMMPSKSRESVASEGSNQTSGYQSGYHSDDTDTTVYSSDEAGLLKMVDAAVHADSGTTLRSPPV

T1 sequence (P35968 20-764 limits assumed): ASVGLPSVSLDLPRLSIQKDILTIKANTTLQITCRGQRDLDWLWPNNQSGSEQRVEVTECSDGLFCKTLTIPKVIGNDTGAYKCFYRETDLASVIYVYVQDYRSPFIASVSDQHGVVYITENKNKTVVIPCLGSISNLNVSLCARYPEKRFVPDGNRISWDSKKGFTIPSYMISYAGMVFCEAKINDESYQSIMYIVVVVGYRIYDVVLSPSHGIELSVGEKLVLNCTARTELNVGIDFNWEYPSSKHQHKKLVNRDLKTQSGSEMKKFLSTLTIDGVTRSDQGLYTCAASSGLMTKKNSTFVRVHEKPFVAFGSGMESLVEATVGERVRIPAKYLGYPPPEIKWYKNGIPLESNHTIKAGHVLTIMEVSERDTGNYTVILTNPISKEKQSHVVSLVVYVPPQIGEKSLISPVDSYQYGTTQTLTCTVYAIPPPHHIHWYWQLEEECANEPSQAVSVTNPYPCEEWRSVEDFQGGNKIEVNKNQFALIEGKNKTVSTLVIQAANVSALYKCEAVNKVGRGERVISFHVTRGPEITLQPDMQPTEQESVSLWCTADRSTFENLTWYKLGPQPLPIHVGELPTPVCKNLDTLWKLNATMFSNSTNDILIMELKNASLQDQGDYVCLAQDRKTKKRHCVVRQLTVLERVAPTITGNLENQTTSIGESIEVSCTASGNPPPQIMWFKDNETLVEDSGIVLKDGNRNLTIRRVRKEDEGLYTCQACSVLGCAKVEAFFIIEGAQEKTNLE

| Compound | inhibition of CT26 adenocarcinoma growth [1] [%] | inhibition of B16.F10 melanoma growth [2] [%] | inhibition of T241 fibrosarcoma growth [3] [%] | weight loss ([4]; 30 mg/kg s.c. every other day) | reaction at the TNP-470 injection site ([4]; occasionally) | inhibition of KDR-Fc binding to VEGF-cTcR clone 2 cells [5] | binding affinity reported for association of native VEGF and Flk-1 [6] [nM] |
| --- | --- | --- | --- | --- | --- | --- | --- |
| CO[C@@H]1[C@H](OC(=O)NC(=O)CCl)CC[C@]2(CO2)[C@H]1[C@@]1(C)O[C@@H]1CC=C(C)C [TNP-470] | 70 | 71 | 73 | up to 10 % of total body weight | mild skin breakdown |  |  |
| VEGF |  |  |  |  |  | inhibited in a dose-dependent manner | 0.1 to 0.5 |
